The source of these data is patent publication US20150376216A1, “SUGAR-ANALOG PHOSPHORUS-CONTAINING HETEROCYCLES HAVING AN ANTI-METASTATIC ACTIVITY” (CENTRE NATIONAL DE LA RECHERCHE SCIENTIRIQUE, priority 2013, published 2015).

Read-outs that look alike come from different tables or passages of the source.

One data set has as its system SNB75 cells. Kind of data set: SNB75 subcutaneous model. It is filed as in vivo, mice. The procedure:
Nude female mice 4-5 weeks old with an average weight of […], supplied by the R. Janvier breeding center, were used. The mice were kept in a pathogen-free environment and with food and water present ad libitum. The experiments were commenced after one week of acclimatizing the mice to their new environment.
A suspension of 5×10^6 SNB75 cells in 100 μl of sterile PBS (phosphate-buffered saline, provided by Fisher) was injected into each mouse (subcutaneous administration without anesthesia). Once the mice presented tumors with volumes of between […], groups were formed so that each of them contained an equivalent number of large, medium and small tumors. The protocol was conducted with five groups of seven mice. The five groups of mice were treated using one of the five formulations described below:
Group A: Treatment by injection of 100 μl of NaCl (control N° 1).
Group B: Treatment with compound 3.48a at a rate of 10 mg/kg with volumes of 100 to 150 μl of formulation 2 according to the weight of the mice.
Group C: Treatment with compound 3.48a at a rate of 5 mg/kg with volumes of 100 to 150 μl of formulation 2 according to the weight of the mice.
Group D: Treatment with temozolomide at a rate of 20 mg/kg with volumes of 100 to 150 μl according to the weight of the mice. Temozolomide is a comparative anticancer active principle sold under the name Temodal by the laboratory Schering Plough. It is indicated for treating glioblastoma multiforme.
Group E: Treatment by injection of 100 to 150 μl according to the weight of the mice of formulation 2 not containing compound 3.48a (control N° 2).
Each batch was treated by intravenous injection into the caudal vein of 100 to 150 μl of solution (precision syringe and G25X1 needle ultrafine wall, VWR). Three injections per week for four weeks were performed. The mice were weighed at each injection. The sizes of the tumors were measured twice a week for a period of four weeks. The mice were sacrificed after four weeks and the tumors and organs (liver, kidney, spleen, brain, intestine, heart, muscles) were removed. A histological analysis was performed on these organs.

A further data set relates to Gli7 GBM stem cells. Kind of data set: Boyden chamber migration test, Gli7. It is filed as cell-based, human. The following applies: 24 hours, read-out: Inhibition constant Ki, migration. The procedure: (§1) The effects of compounds 3.48a, 4.2a and 5.6d on the migration of cancer cells (human glioblastoma line SNB75 or primary culture of human glioblastoma Gli4F1, on the one hand, and MDAMB 435 and A431 on the other hand), were determined by performing a standard migration test in a Boyden chamber (treatment of the cells for 24 hours).
(§2) For this test, the compounds were dissolved in vitro and used in culture in 0.3% of DMSO. The interior of the inserts was covered with the extracellular matrix protein studied (laminin-1, vitronectin or fibronectin). The cells pretreated at various concentrations and untreated (controls) were deposited in the inserts covered with said protein at a rate of 50 000 cells/500 μl/insert in a medium containing 0.1% of BSA (bovine serum albumin).
(§3) 500 μl of medium containing 10% fetal calf serum were then placed in each well of a Companion plate so as to allow the formation of a chemotactic gradient across the porous membrane. After 24 hours of migration in the incubator at 37° C., the supernatent was removed and the inserts rinsed with PBS on each face. The cells were counted with a microscope (Zeiss Axiophot, magnification ×200). This gives a percentage of migration relative to the untreated cells.
(§4) Table 2 below gives, for compound 3.48a, the values for the inhibition constants (Ki) for the migration of a human GBM line (SNB75), of GBM stem cell lines (Gli4, Gli7) and of a breast cancer line MDAMB231, in a Boyden chamber, on various extracellular matrix protein supports. Tables 3 and 4 below give, for compounds 4.2a and 5.6d, the values of the inhibition constants (Ki) for the migration of a melanoma line (MDAMB-435) or of an epidermoid cancer line (A431), in a Boyden chamber, on various extracellular matrix protein supports. The inhibitory effect depends on the line and the stem cells used, but also on the extracellular matrix protein support used.

For another data set, the system named is Gli4 cells. Briefly: Gli4 intracranial model. It is filed as in vivo, mice. The procedure: 2×10^5 Gli4 cells were injected into a group of mice (right striatal injection, injection coordinates: bregma 0 L-L: L: −1.5 mm P: −3.5-2.5). The mice were immediately treated for four weeks at a rate of three injections at 10 mg/kg of compound 3.48a per week (formulation 1, group B) or using 100 μl of NaCl according to the same treatment protocol (group A) and sacrificed after ten weeks.
In the group of control mice (group A), dispersed Gli4 cells are observed, which migrated along the corpus callosum and passed into the other hemisphere. […] This migration reflects migration along the white matter, as observed in human glioblastoma multiformes (dispersion as an intra-fascicular growth along the white matter).

Data set [1] in a line: Solubility / formulation behaviour. It is filed as physicochemical. How it is done:
The following two formulations are particularly suited to compounds 3.48a and 4.2a and allow their in vivo administration, at concentrations of about 20-100 mg/kg, intravenously: […]

A further data set has as its system GBM line C6. Briefly: Boyden chamber migration test, C6. It is filed as cell-based, rat. The following applies: various extracellular matrix substrates.
A short description of a further data set: Acute in vivo toxicity. The conditions noted are these: healthy mice; 50, 25, 10, 5 and 1 mg/kg; maximum dose 50 mg/kg. How it is done:
Studies of the acute toxicity of compounds 3.48a and 4.2a were performed on healthy mice for a concentration range of 50, 25, 10, 5 and 1 mg/kg.

In another data set the test system is Gli4 GBM stem cells. Briefly: Boyden chamber migration test, Gli4. The data set is classed as cell-based, human. The following applies: 24 hours, read-out: Inhibition constant Ki, migration. The procedure:
as §1, §2, §3, §4

The subject of another data set is SNB75 human GBM line. Kind of data set: Boyden chamber migration test, SNB75. The data set is classed as cell-based. The following applies: for Ki: SNB75, 24 hours, read-out: Inhibition constant Ki, migration. How it is done: as §1, §2, §3, §4
[2] abbreviates: 10 and 5 mg/kg i.v. (groups B and C), three injections per week for four weeks.

With `O=[P@@]1(c2ccccc2)O[C@H](COCc2ccccc2)[C@@H](OCc2ccccc2)[C@H](OCc2ccccc2)[C@H]1O` [Compound 3.48a, 4,5-bis-benzyloxy-6-benzyloxymethyl-2-phenyl-2-oxo-2λ^5-[1,2]oxaphosphinan-3-ol], in the data set on SNB75 cells (setting [2]), the Mortality result is “none of the mice died”. In the data set with SNB75 cells (setting [2]), the Weight loss result is given as “no weight loss was observed”. Besides, the “Growth of the primary tumor” value in the data set on SNB75 cells (10 and 5 mg/kg i.v. (groups B and C), three injections per week, after four weeks, vs control groups) is “a very great reduction in the growth of the primary tumor”. The Development of metastases result in the data set on SNB75 cells (10 and 5 mg/kg i.v. (groups B and C), controls all developed metastases in liver and intestine) was “None of the mice treated with compound 3.48a (groups B and C) developed metastases”. In addition, the “Metastases in the liver (FIG. 1A)” value with SNB75 cells (a mouse from group B (10 mg/kg), eight weeks after implantation) is “absence of metastases in the liver”. Besides, the Ki in the data set with Gli7 GBM stem cells (support Fibronectin) was 37 nM; in the data set on Gli7 GBM stem cells (support Laminin) it was 310 nM; with Gli7 GBM stem cells (support Vitronectin) it was 371 nM; in the data set on Gli4 GBM stem cells (support Fibronectin), 1 nM; with Gli4 GBM stem cells (support Laminin), 11 nM; with Gli4 GBM stem cells (support Vitronectin), 5 nM. Further, the Ki at SNB75 human GBM line (support Fibronectin) came to 27 nM; at SNB75 human GBM line (support Laminin), 23000 nM; on SNB75 human GBM line (support Vitronectin), 87 nM. For the same molecule, the “Cell migration in brain during treatment” value in the data set with Gli4 cells (10 mg/kg, three injections per week, four-week treatment (formulation 1)) is given as “made it possible to inhibit cell migration”. Moreover, the “Cell growth and migration after stopping the treatment” value with Gli4 cells (final six weeks after the four-week treatment at 10 mg/kg) was “resumption of the growth and migration of the cells was observed”. For the same molecule, the Complexation in cyclodextrins result in data set [1] is given as “non-complexible in cyclodextrins”. Also, the Solubility result in data set [1] (water, water-soluble solvents) is reported as “insoluble in water, in numerous water-soluble solvents”. The “Inhibition of cell migration” value in the data set with GBM line C6 was “inhibits the cell migration”. Further, the “Mortality, acute toxicity” value in “Acute in vivo toxicity” is reported as “No mortality was observed”. The IC50 with SNB75 human GBM line (Homo sapiens, SNB-75, SNB75 line, on fibronectin or vitronectin, read-out: Concentration for a 50% decrease in migration of the cancer cells) lay within 1 to 100 nM.
